Test results published in PMC8306477, “Neuroprotective Effect of Terpenoids Recovered from Olive Oil By-Products” (Foods, 2021).
Where two headings read alike, the source gives them in different places. Marks after values point to notes of the source that are not given here.

Experiments:
[1] = design: method as in PMID 23565574; settings: BBB permeability of pharmacological drugs; cited from earlier work
[2] = PAMPA-BBB permeability of terpenes of SS adsorbate; format: in vitro ADME
Protocol: Previously, the BBB solution was prepared by dissolving 8 mg of PBL and 4 mg of cholesterol in 600 μL n-dodecane. Ethanolic olive leaves extract was dissolved in buffer (5 mM pH 7.4) as an initial solution at 10 mg/mL (EtOH/buffer, 1:1, v/v). Then, the filter membrane of the donor microplate was impregnated with 5 μL of BBB solution and the acceptor microplate was filled with 350 μL of buffer. Then, 200 μL of initial solution was added to the donor microplate which was assembled like a sandwich over the acceptor microplate. The microplate was incubated in the dark for 4 h at 37 °C and continuous agitation. After the incubation process, 200 μL were taken from each microplate, placed into a vial, dried, and reconstituted in 50 μL of EtOH to obtain donor and acceptor solutions. Both solutions were injected in the GC-qTOF-MS system to identify and compare the compounds present in both microplates. […] CD(t) is compound concentration in the donor well at time t and CA(t) is compound concentration in the acceptor well at time t.

[3] = ABTS•+ radical scavenging assay; settings: mean ± SD (n = 3); 45 min, 30 °C
Protocol: Antioxidant activity of all olive leaves extracts was measured using the ABTS^•+ radical scavenging assay according to Re et al., (1999) with modifications. […] After this time, radical ABTS^•+ solution was diluted with the buffer (5 mM, pH 7.4) to adjust the absorbance to 0.700 ± 0.002 measured at 734 nm wavelength and 30 °C. The 96-well microplate containing 250 μL ABTS^•+ solution and 100 μL of olive leaves extract at six different concentrations (from 14.3 to 143 μg/mL EtOH/H2O (1:1, v/v)) was incubated in the dark at 30 °C. After 45 min, the absorbance at 734 nm was measured. Trolox and ascorbic acid were used as reference standards while rosemary extract was used as natural reference standard. All measurements were performed in triplicate. ABTS^•+ inhibition percentage from olive leaves extracts was calculated as follows:(3) %Inh=AABTScontrol−(Asample−Asample blank)/AABTS control×100 where AABTScontrol is the absorbance of ABTS^•+ radical in buffer at t = 0 min; Asample, is the absorbance of an ABTS^•+ solution mixed with extracts; and Asample blank is the absorbance of samples without ABTS^•+.

[4] = RNS scavenging capacity, nitric oxide radical (Griess) assay; settings: NO• scavenging; mean ± SD (n = 3)
Protocol: RNS was evaluated by the nitric oxide (NO^•) radical scavenging assay of OLE, according to Ho et al. (2010), based on the reaction of Griess. The 96-well microplate filling distribution was as follows: 100 μL of extract sample at different concentrations (250–2500 μg/mL) in EtOH/H2O (1:3, v/v), and 50 μL of SNP (5 mM) in buffer (30 mM pH = 7.5). The mixture was incubated at room temperature for 2 h under direct light. Nitrile ion concentration was measured at […] after the addition of […] Ascorbic acid was used as the reference standard. Each measurement was carried out in triplicate and the capacity of the extract for scavenging NO^• radicals was calculated through inhibition percentage as described in Equation (3).

[5] = ROS scavenging capacity, ORAC method; settings: mean ± SD (n = 3)
Protocol: Oxygen radical absorbance capacity (ORAC) method was performed as reported by Ou et al. (2001). Briefly, 100 μL of the extract sample at different concentrations (5–50 μg/mL) in EtOH/H2O (1: 9, v/v), 100 μL of AAPH (590 mM) in PBS buffer (30 mM, pH = 7.5), 25 μL of fluorescein (10 μM) in PBS buffer, and 100 μL of PBS buffer were placed in a 96-well microplate. The fluorescence kinetic measurements were recorded at λexcitation = 485 nm and λemission = 530 nm at intervals of 5 min for a runtime of 60 min at 37 °C. Ascorbic acid was used as the reference standard. Each measurement was carried out in triplicate and the capacity of the extract for scavenging peroxyl radicals generated by spontaneous decomposition of AAPH was calculated through the inhibition percentage of the difference between the Area Under the Curve (AUC) of fluorescence decay in the presence (AUCsample) or absence (AUCcontrol) of the sample by Equation (4). (4) %Inh=AUCcontrol−AUCsample/AUCcontrol×100

[6] = terpene within Sea Sand Adsorbate, 4 h, 37 °C, buffer pH 7.4, GC-qTOF-MS, read-out: PAMPA-BBB Log Pe (RSD %) (converted)

In the case of `COc1ccc2c3c1O[C@H]1C[C@@H](O)C=C[C@@]31CCN(C)C2` [Galantamine], the “log Pe ± SD” value [1] is listed as −5.35 ± 0.02 cm/s.

`CC(C)=CCC/C(C)=C/CC/C(C)=C/CC/C=C(\C)CC/C=C(\C)CCC=C(C)C` [Squalene] showed a Papp at 4 h [2, 6] of 13.2 ×10⁻⁶ cm/s.

With `CC1(C)CC[C@]2(C)CC[C@]3(C)C(=CC[C@@H]4[C@@]5(C)CC[C@H](O)C(C)(C)[C@@H]5CC[C@]43C)[C@@H]2C1` [β-Amyrin] the Papp at 4 h ([2]; pH 7.4) was 0.479 ×10⁻⁶ cm/s.

With `O=C1O[C@H]([C@@H](O)CO)C(O)=C1O` [Ascorbic acid] the “Antioxidant Capacity by ABTS IC50” value [3] was 25.00 ± 0.30 ^a µg/mL, the “RNS IC50” value [4] was 1100.90 ± 13.96 ^b µg/mL and the “ROS IC50” value [5] was 1.29 ± 0.09 ^b µg/mL.

With `Cc1c(C)c2c(c(C)c1O)CCC(C)(C(=O)O)O2` (racemic) [Trolox, (±)-6-Hydroxy-2,5,7,8-tetramethylchromane-2-carboxylic acid] the “Antioxidant Capacity by ABTS IC50” value [3] was 2.50 ± 0.02 ^r µg/mL and the “ROS IC50” value [5] was 0.98 ± 0.11 ^c µg/mL.

In the case of `O=c1c(O)c(-c2ccc(O)c(O)c2)oc2cc(O)cc(O)c12` [Quercetin], the “log Pe ± SD” value [1] is given as −7.02 ± 0.08 cm/s.

`C[C@H]1[C@H](C)CC[C@]2(CO)CC[C@]3(C)C(=CC[C@@H]4[C@@]5(C)CC[C@H](O)C(C)(C)[C@@H]5CC[C@]43C)[C@H]12` [Uvaol] gave a Papp at 4 h [2, 6] of 1.51 ×10⁻⁶ cm/s.

For `CC1(C)CC[C@]2(CO)CC[C@]3(C)C(=CC[C@@H]4[C@@]5(C)CC[C@H](O)C(C)(C)[C@@H]5CC[C@]43C)[C@@H]2C1` [Erythrodiol], the Papp at 4 h [2, 6] was 0.575 ×10⁻⁶ cm/s.

Work on `Cc1c(C)c2c(c(C)c1O)CC[C@@](C)(CCC[C@H](C)CCC[C@H](C)CCCC(C)C)O2` [α-Tocopherol] yielded a Papp at 4 h [2, 6] of 1.15 ×10⁻⁶ cm/s.

Work on `CC[C@H](CC[C@@H](C)[C@H]1CC[C@H]2[C@@H]3CC=C4C[C@@H](O)CC[C@]4(C)[C@H]3CC[C@]12C)C(C)C` [β-Sitosterol] yielded a Papp at 4 h [2, 6] of 0.912 ×10⁻⁶ cm/s.

Work on `Cc1c(O)cc2c(c1C)O[C@](C)(CCC[C@H](C)CCC[C@H](C)CCCC(C)C)CC2` [γ-Tocopherol] yielded a Papp at 4 h [2, 6] of 8.91 ×10⁻⁶ cm/s.
